Key:
corn = assay: Test B pre-/postemergence herbicide test; format: in vivo, Zea mays
Method in brief: (§1)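 Visual rating, 0 (no effect) to 100 (complete control), versus untreated controls after 13–15 d in greenhouse. Pre- and postemergence applications (postemergence plants 2–18 cm, 1–4 leaves); flooded paddy arm at 2-leaf stage. Compounds in non-phytotoxic solvent plus surfactant.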

large crabgrass = assay: Test B pre-/postemergence herbicide test; format: in vivo, Digitaria sanguinalis
Method in brief: as §1

Surinam grass = assay: Test C pre-/postemergence herbicide test; format: in vivo, Urochloa decumbens
Method in brief: (§2)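 Pre/post spray; non-phytotoxic solvent + surfactant. Post-timing 1–4 leaves, 2–18 cm. Read-out: visual % control vs untreated, day 12–14, greenhouse.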

cocklebur = assay: Test C pre-/postemergence herbicide test; format: in vivo, Xanthium strumarium; conditions: for Cocklebur plant response rating: Preemergence, 500 g ai/ha, scale 0 to 100, 0 no effect, 100 complete control
Method in brief: as §2

eastern black nightshade = assay: Test C pre-/postemergence herbicide test; format: in vivo, Solanum ptycanthum
Method in brief: as §2

pigweed = assay: Test C pre-/postemergence herbicide test; format: in vivo, Amaranthus retroflexus
Method in brief: as §2

soybean = assay: Test C pre-/postemergence herbicide test; format: in vivo, Glycine max
Method in brief: as §2

velvetleaf = assay: Test C pre-/postemergence herbicide test; format: in vivo, Abutilon theophrasti
Method in brief: as §2

[1] = 125 g ai/ha, 0 = no effect, 100 = complete control, preemergence
[2] = 125 g ai/ha, visual rating, scale 0 (no effect) to 100 (complete control), postemergence
[3] = 500 g ai/ha, visual rating, 0 = no effect, 100 = complete control, preemergence
[4] = postemergence, 500 g ai/ha, scale 0 to 100, 0 is no effect, 100 is complete control
[5] = 62 g ai/ha, preemergence, scale 0 to 100
[6] = 250 g ai/ha, scale 0-100, preemergence
[7] = 500 g ai/ha, scale 0 to 100 (0 no effect, 100 complete control), visual, 12 to 14 days, preemergence
[8] = 125 g ai/ha, scale 0 (no effect) to 100 (complete control), visual, 12 to 14 days, preemergence
[9] = Postemergence, 500 g ai/ha, visual rating after 13 to 15 days, scale 0 (no effect) to 100 (complete control)
[10] = Preemergence, 500 g ai/ha, scale 0 to 100
[11] = postemergence, 125 g ai/ha, visual rating, scale 0 (no effect) to 100 (complete control)
[12] = preemergence, 125 g ai/ha, 0 to 100 scale, 0 is no effect, 100 is complete control
[13] = 250 g ai/ha, scale 0 to 100 (0 no effect, 100 complete control), visual, 12 to 14 days, preemergence
[14] = Preemergence, 500 g ai/ha, scale 0 to 100, 0 no effect, 100 complete control

CCN1N=C(C(C)(C)C)CC1C(=O)Nc1cc(C(=O)N2CCCC2)ccc1F (racemic) [Compound 309]
Corn plant response rating (0 to 100 scale) (corn; [1]): 60
Corn plant response rating (corn; [2]): 20
Plant response rating, Corn (corn; [3]): 90
Corn plant response rating (corn; [4]): 60
Crabgrass, Large plant response rating (0 to 100 scale) (large crabgrass; [1]): 60
Crabgrass, Large plant response rating (large crabgrass; [2]): 0
Plant response rating, Crabgrass, Large (large crabgrass; [3]): 100
Crabgrass, Large plant response rating (large crabgrass; [4]): 40
Plant response rating, Surinam Grass (Surinam grass; [5]): 50
Plant response rating, Surinam Grass (Surinam grass; [6]): 90
Plant response rating, Surinam Grass (Surinam grass; [7]): 100
Plant response rating, Cocklebur (cocklebur; [5]): 0
Plant response rating, Cocklebur (cocklebur; [8]): 10
Plant response rating, Cocklebur (cocklebur; [6]): 60
Cocklebur plant response rating (cocklebur): 60
Plant response rating, Nightshade (eastern black nightshade; [5]): 70
Plant response rating, Nightshade (eastern black nightshade; [8]): 80
Plant response rating, Nightshade (eastern black nightshade; [6]): 100
Plant response rating, Nightshade (eastern black nightshade; [7]): 100
Plant response rating, Pigweed (pigweed; [5]): 80
Plant response rating, Pigweed (pigweed; [8]): 100
Plant response rating, Pigweed (pigweed; [6]): 100
Plant response rating, Pigweed (pigweed; [7]): 100
Plant response rating, Soybean (soybean; [5]): 20
Plant response rating, Soybean (soybean; [6]): 80
Plant response rating, Soybean (soybean; [7]): 80
Plant response rating, Velvetleaf (velvetleaf; [5]): 5
Plant response rating, Velvetleaf (velvetleaf; [6]): 75
Plant response rating, Velvetleaf (velvetleaf; [7]): 100

CCCn1nc(C(C)(C)C)cc1C(=O)Nc1cccc(C(=O)NCC)c1 [Compound 57]
Plant response rating, Corn (corn; [9]): 20
Corn plant response rating (corn; [10]): 0
Corn plant response rating (corn; [11]): 20
Plant response rating, Corn (corn; [12]): 0
Plant response rating, Crabgrass, Large (large crabgrass; [9]): 20
Crabgrass, Large plant response rating (large crabgrass; [10]): 100
Crabgrass, Large plant response rating (large crabgrass; [11]): 10
Plant response rating, Crabgrass, Large (large crabgrass; [12]): 40
Plant response rating (0 = no effect, 100 = complete control), Surinam Grass (Surinam grass; 62 g ai/ha, preemergence): 0
Plant response rating, Surinam Grass (Surinam grass; [8]): 15
Plant response rating, Surinam Grass (Surinam grass; [13]): 35
Surinam Grass plant response rating (Surinam grass; [14]): 75
Plant response rating (0 = no effect, 100 = complete control), Cocklebur (cocklebur; 62 g ai/ha, preemergence): 0
Plant response rating, Cocklebur (cocklebur; [8]): 0
Plant response rating, Cocklebur (cocklebur; [13]): 0
Cocklebur plant response rating (cocklebur): 0
Plant response rating (0 = no effect, 100 = complete control), Nightshade (eastern black nightshade; 62 g ai/ha, preemergence): 85
Plant response rating, Nightshade (eastern black nightshade; [8]): 95
Plant response rating, Nightshade (eastern black nightshade; [13]): 100
Nightshade plant response rating (eastern black nightshade; [14]): 100
Plant response rating (0 = no effect, 100 = complete control), Pigweed (pigweed; 62 g ai/ha, preemergence): 100
Plant response rating, Pigweed (pigweed; [8]): 100
Plant response rating, Pigweed (pigweed; [13]): 100
Pigweed plant response rating (pigweed; [14]): 100
Plant response rating (0 = no effect, 100 = complete control), Soybean (soybean; 62 g ai/ha, preemergence): 0
Plant response rating, Soybean (soybean; [8]): 0
Plant response rating, Soybean (soybean; [13]): 0
Soybean plant response rating (soybean; [14]): 60
Plant response rating (0 = no effect, 100 = complete control), Velvetleaf (velvetleaf; 62 g ai/ha, preemergence): 0
Plant response rating, Velvetleaf (velvetleaf; [8]): 0
Plant response rating, Velvetleaf (velvetleaf; [13]): 100
Velvetleaf plant response rating (velvetleaf; [14]): 100

CCn1nc(C2(C)CC2)cc1C(=O)Nc1cccc(C(=O)N2CC=CC2)c1 [Compound 304]
Corn plant response rating (0 to 100 scale) (corn; [1]): 0
Corn plant response rating (corn; [2]): 40
Corn plant response rating (corn; [4]): 80
Crabgrass, Large plant response rating (0 to 100 scale) (large crabgrass; [1]): 10
Crabgrass, Large plant response rating (large crabgrass; [2]): 10
Plant response rating, Crabgrass, Large (large crabgrass; [3]): 100
Crabgrass, Large plant response rating (large crabgrass; [4]): 10
Plant response rating, Surinam Grass (Surinam grass; [5]): 0
Plant response rating, Surinam Grass (Surinam grass; [6]): 40
Plant response rating, Surinam Grass (Surinam grass; [7]): 85
Plant response rating, Cocklebur (cocklebur; [5]): 0
Plant response rating, Cocklebur (cocklebur; [8]): 0
Plant response rating, Cocklebur (cocklebur; [6]): 0
Cocklebur plant response rating (cocklebur): 0
Plant response rating, Nightshade (eastern black nightshade; [5]): 80
Plant response rating, Nightshade (eastern black nightshade; [8]): 100
Plant response rating, Nightshade (eastern black nightshade; [6]): 100
Plant response rating, Nightshade (eastern black nightshade; [7]): 100
Plant response rating, Pigweed (pigweed; [5]): 100
Plant response rating, Pigweed (pigweed; [8]): 100
Plant response rating, Pigweed (pigweed; [6]): 100
Plant response rating, Pigweed (pigweed; [7]): 100
Plant response rating, Soybean (soybean; [5]): 0
Plant response rating, Soybean (soybean; [6]): 20
Plant response rating, Soybean (soybean; [7]): 20
Plant response rating, Velvetleaf (velvetleaf; [5]): 0
Plant response rating, Velvetleaf (velvetleaf; [7]): 60
